One test concerns Colo-205. The test can be described thus: In vitro proliferation assay (MTT), Colo-205. The class given is cell-based. The settings on record: Homo sapiens, COLO 205; MTT assay; value (SD, n) where given; read-out: Colo-205 Colon (IC50 µM). Here is the method:
(§1) The proliferation of tumor cells can be measured using a tetrazolium salt-based assay known as the MTT (3-[4,5-Dimethylthiazol-2-yl]-2,5-diphenyltetrazolium bromide) assay. The proliferation test is performed essentially as described by Carmichael et al., Cancer Res. 47: 936-942, 1987. For the assay, the cell lines are plated onto 96 well plates at 1000 to 2500 cells/well (depending on the properties of the individual cell lines), left to attach and recover overnight. […] After 3 days, the cells are incubated with MTT dye (3-[4,5-Dimethylthiazol-2-yl]-2,5-diphenyltetrazolium bromide, Sigma # M5655, 10 mg/ml in Hank's Buffered Saline) to estimate the amount of live cells remaining vs. concentration for the test compounds. Specifically, MTT solution is added to a final concentration of […] and the plates incubated at 37 C for 2 to 4 hr. The MTT and culture medium is then removed from the cultures and 200 µl of DMSO is added to solubilize the dye from the cell layer. The absorbance at 570 nm is determined for each culture using a Spectramax plate reader (Molecular Devices).
(§2) IC50s were determined from the raw data from either the MTT or SRB assays.
(Tetrazolium dyes change colour on reduction, which living cells bring about.)

The target in another test is cdk2/cyclin E (Homo sapiens, UniProt P24941). Nature of the test: Cyclin-dependent kinase assay, cdk2/cyclin E. The settings on record: CDK2 IC50, nM, GST-pRb substrate, 10 µM ATP.
Another test has as its system NCI-H460. Nature of the test: In vitro proliferation assay (MTT), NCI-H460. The test is classed as cell-based. The settings on record: Homo sapiens, NCI-H460; MTT assay; value (SD, n) where given; read-out: H-460 Lung (IC50 µM). On the procedure:
as §1, §2
(§3) All of the cell lines were obtained from American Type Tissue Collection, with the ATCC accession number in parentheticals. MCF-7 and MDA-MB-231 cells were grown in improved minimum essential medium (Biofluids) without phenol red, supplemented with 5 % fetal bovine serum, 0.01 mg/ml gentamicin and 3 mM L-glutamine. All of the other cell lines were grown in RPMI 1640 medium (Life Technologies) supplemented with 5 % fetal bovine serum, 0.01 mg/ml gentamicin and 3 mM L-glutamine TABLE 3

The next test addresses cdk4/cyclin D1 (Homo sapiens, UniProt P11802). The test can be described thus: Cyclin-dependent kinase assay, cdk4/cyclin D1. The test is classed as biochemical. The settings on record: cyclin D1/cdk4; GST-pRb substrate, 10 µM ATP.
The test system of a further test is PC-3. Nature of the test: In vitro proliferation assay (MTT), PC-3. The test is classed as cell-based, human. The conditions noted are these: Homo sapiens, PC-3, MTT assay; value (SD, n) where given; read-out: PC-3 Prostate (IC50 µM). An outline of the steps: (§4)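 MTT viability, 3 d compound treatment; seeding 1000–2500 cells/well, overnight attachment; formazan in DMSO, A570; IC50 fitted from raw absorbance.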

A further test has as its target cdk1/cyclin B (Homo sapiens, UniProt P06493). The test can be described thus: Cyclin-dependent kinase assay, cdk1/cyclin B. The conditions noted are these: CDK1 IC50, nM, Histone H1, 10 µM ATP.
The next test concerns MDA-MB-435. The test can be described thus: In vitro proliferation assay (MTT), MDA-MB-435. The class given is cell-based, human. The conditions noted are these: Homo sapiens, MDA-MB-435, MTT assay; value (SD, n) where given; read-out: MB-435 Breast (IC50 µM). An outline of the steps: as §4
Another test concerns Jurkat. Nature of the test: In vitro proliferation assay (MTT), Jurkat. The settings on record: Homo sapiens, MTT assay, value (SD, n) where given, read-out: Jurkat Leuk. (IC50 µM). The class given is cell-based. On the procedure: as §1, §2, §3
The subject of another test is HL-60. Nature of the test: In vitro proliferation assay (MTT), HL-60. The test is classed as cell-based. The conditions noted are these: Homo sapiens, HL-60; MTT assay; value (SD, n) where given; read-out: HL-60 Leuk. (IC50 µM). Here is the method: as §1, §2, §3

Structures can show the parent of a compound that is named as a salt.

Chain of cdk1/cyclin B (P06493 whole entry): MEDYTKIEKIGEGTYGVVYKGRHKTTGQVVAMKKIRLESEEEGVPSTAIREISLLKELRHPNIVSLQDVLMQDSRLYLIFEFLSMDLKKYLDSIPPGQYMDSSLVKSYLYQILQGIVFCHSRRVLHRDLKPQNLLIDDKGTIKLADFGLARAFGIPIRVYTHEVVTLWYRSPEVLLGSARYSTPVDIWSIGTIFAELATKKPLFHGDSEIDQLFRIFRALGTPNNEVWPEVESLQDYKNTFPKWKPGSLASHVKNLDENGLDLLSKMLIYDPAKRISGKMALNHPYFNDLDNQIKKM
Chain of cdk1/cyclin B (P14635 whole entry partner): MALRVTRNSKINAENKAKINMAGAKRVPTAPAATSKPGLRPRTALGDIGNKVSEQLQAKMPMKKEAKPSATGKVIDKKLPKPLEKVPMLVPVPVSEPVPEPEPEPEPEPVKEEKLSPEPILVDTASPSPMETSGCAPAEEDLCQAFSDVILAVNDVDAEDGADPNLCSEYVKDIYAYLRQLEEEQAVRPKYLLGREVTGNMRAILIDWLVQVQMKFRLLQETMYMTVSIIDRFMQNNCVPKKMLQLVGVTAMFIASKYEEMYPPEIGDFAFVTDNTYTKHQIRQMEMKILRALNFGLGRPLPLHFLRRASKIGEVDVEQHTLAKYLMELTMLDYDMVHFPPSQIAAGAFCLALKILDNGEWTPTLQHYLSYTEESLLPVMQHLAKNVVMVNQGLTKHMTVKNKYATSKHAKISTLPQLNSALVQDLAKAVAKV
Chain of cdk4/cyclin D1 (P11802 whole entry): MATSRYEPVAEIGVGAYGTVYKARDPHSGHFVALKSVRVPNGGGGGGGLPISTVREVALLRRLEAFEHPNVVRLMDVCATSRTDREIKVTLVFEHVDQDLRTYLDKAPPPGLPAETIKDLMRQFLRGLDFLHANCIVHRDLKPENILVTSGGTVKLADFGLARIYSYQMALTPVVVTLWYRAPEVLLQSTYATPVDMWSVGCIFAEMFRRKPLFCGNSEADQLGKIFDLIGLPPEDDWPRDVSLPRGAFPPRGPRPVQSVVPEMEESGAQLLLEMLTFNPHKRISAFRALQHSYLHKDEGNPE
Chain of cdk4/cyclin D1 (P24385 whole entry partner): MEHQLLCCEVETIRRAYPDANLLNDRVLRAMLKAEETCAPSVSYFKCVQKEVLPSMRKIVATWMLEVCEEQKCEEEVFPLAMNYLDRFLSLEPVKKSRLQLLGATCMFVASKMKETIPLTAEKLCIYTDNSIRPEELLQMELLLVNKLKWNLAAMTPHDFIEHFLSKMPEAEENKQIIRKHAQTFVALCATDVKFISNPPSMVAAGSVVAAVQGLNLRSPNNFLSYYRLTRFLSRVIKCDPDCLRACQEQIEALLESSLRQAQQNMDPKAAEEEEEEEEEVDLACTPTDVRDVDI

Take `N[C@H]1CC[C@H](Nc2nc(NC3CCN(C(=O)COc4ccccc4)CC3)c3ncn(C4CCCC4)c3n2)CC1` [compound 28, trans-1-{4-[2-(4-Amino-cyclohexylamino)-9-cyclopentyl-9H-purin-6-ylamino]-piperidin-1-yl}-2-phenoxy-ethanone dihydrochloride]: the IC50 (in general, the concentration that inhibits the measured activity by half) in the test on Colo-205 stood at 0.09 µM; at cdk2/cyclin E, 52 nM; in the test with NCI-H460, 0.21 µM; on cdk4/cyclin D1, 140 nM; with PC-3 it was 0.22 µM; at cdk1/cyclin B it was 20 nM. Moreover, the half-maximal inhibitory concentration (IC50) in the test with MDA-MB-435 amounted to 0.21 µM.

As for `N[C@H]1CC[C@H](Nc2nc(NC3CCN(C(=O)COc4ccc(Cl)cc4)CC3)c3ncn(C4CCCC4)c3n2)CC1` [compound 31, trans-1-{4-[2-(4-Amino-cyclohexylamino)-9-cyclopentyl-9H-purin-6-ylamino]-piperidin-1-yl}-2-(4-chloro-phenoxy)-ethanone dihydrochloride], the IC50 amounted to 0.04 µM in the test with Colo-205; 5 nM at cdk2/cyclin E; 0.19 µM with NCI-H460; 2040 nM at cdk4/cyclin D1; 0.16 µM in the test with PC-3; 105 nM against cdk1/cyclin B. Besides, the half-inhibitory concentration (IC50) in the test on MDA-MB-435 was 0.17 µM.

On to `N[C@H]1CC[C@H](Nc2nc(NC3CCN(C(=O)CCc4ccccc4)CC3)c3ncn(C4CCCC4)c3n2)CC1` [compound 33, trans 1-{4-[2-(4-Amino-cyclohexylamino)-9-cyclopentyl-9H-purin-6-ylamino]-piperidin-1-yl}-3-phenyl-propan-1-one dihydrochloride], for which the concentration for half-maximal inhibition (IC50) in the test on Colo-205 is 0.07 µM; against cdk2/cyclin E, 30 nM; with NCI-H460, 0.24 µM; against cdk4/cyclin D1 it was 427 nM; in the test with PC-3 it was 0.33 µM; at cdk1/cyclin B, 58 nM. Moreover, the concentration for half-maximal inhibition (IC50) with MDA-MB-435 amounted to 0.26 µM.

In the case of `N[C@H]1CC[C@H](Nc2nc(NC3CCN(C(=O)COCc4ccccc4)CC3)c3ncn(C4CCCC4)c3n2)CC1` [compound 37, trans-1-{4-[2-(4-Amino-cyclohexylamino)-9-cyclopentyl-9H-purin-6-ylamino]-piperidin-1-yl}-2-benzyloxy-ethanone dihydrochloride], the 50% inhibitory concentration (IC50) in the test with Colo-205 is < 0.02 µM; at cdk2/cyclin E, 32 nM; with NCI-H460 it was 0.23 µM; at cdk4/cyclin D1, 1700 nM; in the test on PC-3 it was 0.2 µM; against cdk1/cyclin B, 15 nM. Further, in the test on MDA-MB-435, the IC50 stood at 0.26 µM.

Take `N[C@H]1CC[C@H](Nc2nc(NC3CCN(C(=O)CSc4ccccc4)CC3)c3ncn(C4CCCC4)c3n2)CC1` [compound 46, trans-1-{4-[2-(4-Amino-cyclohexylamino)-9-cyclopentyl-9H-purin-6-ylamino]-piperidin-1-yl}-2-phenylsulfanylethanone dihydrochloride]: the IC50 came to 0.06 µM with Colo-205; 55 nM on cdk2/cyclin E; 0.17 µM in the test on NCI-H460; 709 nM against cdk4/cyclin D1; 0.19 µM with PC-3; 153 nM on cdk1/cyclin B. The IC50 in the test with MDA-MB-435 is 0.17 µM.

Turning to `N[C@H]1CC[C@H](Nc2nc(NC3CCN(C(=O)C4CCC4)CC3)c3ncn(C4CCCC4)c3n2)CC1` [compound 63, trans-1-{4-[2-(4-Amino-cyclohexylamino)-9-cyclopentyl-9H-purin-6-ylamino]-piperidin-1-yl}-1-cyclobutyl-methanone dihydrochloride], the IC50 in the test on Colo-205 stood at 0.16 µM; against cdk2/cyclin E, 66 nM; with NCI-H460 it was 0.24 µM; against cdk4/cyclin D1 it was 441 nM; in the test with PC-3, 0.21 µM; against cdk1/cyclin B, 23 nM. Moreover, the IC50 in the test on MDA-MB-435 is 0.17 µM.

On to `N[C@H]1CC[C@H](Nc2nc(NC3CCN(S(=O)(=O)c4ccccc4)CC3)c3ncn(C4CCCC4)c3n2)CC1` [compound 105, trans-N^2-(4-Amino-cyclohexyl)-N^6-(1-benzenesulfonyl-piperidin-4-yl)-9-cyclopentyl-9H-purine-2,6-diamine dihydrochloride], for which the IC50 came to 0.21 µM in the test with Colo-205; 8 nM against cdk2/cyclin E; 0.29 µM in the test with NCI-H460; 69 nM against cdk4/cyclin D1; 0.5 µM in the test with PC-3; 7 nM against cdk1/cyclin B. Moreover, the half-maximal inhibitory concentration (IC50) with MDA-MB-435 was 0.18 µM.

In the case of `CC1(C)C2CCC1(CS(=O)(=O)N1CCC(Nc3nc(N[C@H]4CC[C@H](N)CC4)nc4c3ncn4C3CCCC3)CC1)C(=O)C2` (stereo partly drawn) [compound 107, trans-1-{4-[2-(4-Amino-cyclohexylamino)-9-cyclopentyl-9H-purin-6-ylamino]-piperidine-1-sulfonylmethyl}-7,7-dimethyl-bicyclo[2.2.1]heptan-2-one dihydrochloride], the IC50 in the test with Colo-205 was found to be 0.18 µM; on cdk2/cyclin E, 35 nM; in the test with NCI-H460, 0.29 µM; against cdk4/cyclin D1 it was 10 nM; in the test on PC-3 it was 0.41 µM; against cdk1/cyclin B, 250 nM. Besides, the half-inhibitory concentration (IC50) in the test on MDA-MB-435 was 0.11 µM.

In the case of `N[C@H]1CC[C@H](Nc2nc(NC3CCN(S(=O)(=O)c4ccc(Cl)cc4)CC3)c3ncn(C4CCCC4)c3n2)CC1` [compound 108, trans-N -(4-Amino-cyclohexyl)-9-cyclopentyl-N^6-[1-(4-chloro-benzenesulfonyl)-piperidin-4-yl]-9H-purine-2,6-diamine dihydrochloride], the IC50 in the test on Colo-205 was determined as 0.18 µM; against cdk2/cyclin E it was 10 nM; with NCI-H460, 0.29 µM; on cdk4/cyclin D1 it was 170 nM; in the test on PC-3, 0.43 µM; on cdk1/cyclin B, 7 nM. Also, in the test on MDA-MB-435, the IC50 amounted to 0.14 µM.

For the compound `Cc1noc(C)c1S(=O)(=O)N1CCC(Nc2nc(N[C@H]3CC[C@H](N)CC3)nc3c2ncn3C2CCCC2)CC1` [compound 110, trans-N^2-(4-Amino-cyclohexyl)-9-cyclopentyl-N^6-[1-(3,5-dimethyl-isoxazole-4-sulfonyl)-piperidin-4-yl]-9H-purine-2,6-diamine dihydrochloride], the IC50 with Colo-205 is 0.25 µM; at cdk2/cyclin E, 9 nM; in the test with NCI-H460 it was 0.65 µM; against cdk4/cyclin D1, 158 nM; in the test on PC-3, 0.76 µM; against cdk1/cyclin B, 27 nM. Also, the half-inhibitory concentration (IC50) in the test on MDA-MB-435 turned out to be 0.44 µM.

As to `N[C@H]1CC[C@H](Nc2nc(NC3CCN(S(=O)(=O)c4cc(Cl)cc(Cl)c4O)CC3)c3ncn(C4CCCC4)c3n2)CC1` [compound 117, trans-2-{4-[2-(4-Amino-cyclohexylamino)-9-cyclopentyl-9H-purin-6-ylamino]-piperidine-1-sulfonyl}-4,6-dichloro-phenol dihydrochloride], the IC50 is 31 nM on cdk2/cyclin E; 43.6 µM with Jurkat; 558 nM on cdk4/cyclin D1; 34.1 µM in the test on PC-3; 290 nM against cdk1/cyclin B; 24.2 µM in the test with HL-60. Moreover, the IC50 with MDA-MB-435 is 39 µM.

Consider `N[C@H]1CC[C@H](Nc2nc(NC3CCN(C(=O)Nc4ccccc4Br)CC3)c3ncn(C4CCCC4)c3n2)CC1` [compound 168, trans-4-[2-(4-Amino-cyclohexylamino)-9-cyclopentyl-9H-purin-6-ylamino]-piperidine-1-carboxylic acid (2-bromo-phenyl)-amide dihydrochloride], for which the concentration for half-maximal inhibition (IC50) in the test with Colo-205 is 0.16 µM; at cdk2/cyclin E, 52 nM; in the test on NCI-H460, 0.19 µM; on cdk4/cyclin D1, 111 nM; in the test with PC-3, 0.19 µM; at cdk1/cyclin B, 29 nM. Moreover, the IC50 with HL-60 was 0.04 µM; with MDA-MB-435 it was 0.15 µM.

These data come from patent EP1377579B1 (Aventis Pharmaceuticals Inc., priority 2000, dated 2002).
